Measured values: PubChem BioAssay (NCI)
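Abbreviation: GI50, concentration required for 50% inhibition of growth. TGI: total growth inhibition.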

Tests used:
Experiment in all cases: NCI tumour cell line growth inhibition, 384-well format
786-0 renal = system: 786-0 renal
A498 renal = system: A498 renal
A549 NSCLC = system: A549 NSCLC
ACHN renal = system: ACHN renal
BT-549 breast = system: BT-549 breast
CAKI-1 renal = system: CAKI-1 renal
CCRF-CEM leukemia = system: CCRF-CEM leukemia
COLO 205 colon = system: COLO 205 colon
DU-145 prostate = system: DU-145 prostate
EKVX NSCLC = system: EKVX NSCLC
HCC-2998 colon = system: HCC-2998 colon
HCT-116 colon = system: HCT-116 colon
HCT-15 colon = system: HCT-15 colon
HL-60(TB) leukemia = system: HL-60(TB) leukemia
HOP-62 NSCLC = system: HOP-62 NSCLC
HOP-92 NSCLC = system: HOP-92 NSCLC
HS 578T breast = system: HS 578T breast
HT29 colon = system: HT29 colon
IGROV1 ovarian = system: IGROV1 ovarian
K-562 leukemia = system: K-562 leukemia
KM12 colon = system: KM12 colon
LOX IMVI melanoma = system: LOX IMVI melanoma
M14 melanoma = system: M14 melanoma
MALME-3M melanoma = system: MALME-3M melanoma
MCF7 breast = system: MCF7 breast
MDA-MB-231 breast = system: MDA-MB-231 breast
MDA-MB-435 melanoma = system: MDA-MB-435 melanoma
MDA-MB-468 breast = system: MDA-MB-468 breast
MOLT-4 leukemia = system: MOLT-4 leukemia

Q: Which GI50 ([…]-0 renal) does the source give for `Cc1cnc(CNC(=O)c2c(=O)c3ccc(N4CCCN(C)CC4)nc3n3c2sc2ccccc23)cn1` here?
A: 359 nM

Q: And the TGI (786-0 renal)?
A: 12800 nM

Q: What about the GI50 (A498 renal) of the same compound?
A: 112 nM

Q: And the TGI (A498 renal)?
A: 1550 nM

Q: And the GI50 (A549 NSCLC)?
A: 36.9 nM

Q: And the TGI (A549 NSCLC)?
A: 1340 nM

Q: And the GI50 (ACHN renal)?
A: 64.3 nM

Q: And the TGI (ACHN renal)?
A: > 100000 nM

Q: What about the GI50 (BT-549 breast) of the same compound?
A: 1380 nM

Q: What about the TGI (BT-549 breast) of the same compound?
A: > 100000 nM

Q: What about the GI50 (CAKI-1 renal) of the same compound?
A: 607 nM

Q: And the TGI (CAKI-1 renal)?
A: > 100000 nM

Q: And the GI50 (CCRF-CEM leukemia)?
A: 24.2 nM

Q: What about the TGI (CCRF-CEM leukemia) of the same compound?
A: 111 nM

Q: What about the GI50 (COLO 205 colon) of the same compound?
A: 244 nM

Q: And the TGI (COLO 205 colon)?
A: > 100000 nM

Q: And the GI50 (DU-145 prostate)?
A: 490 nM

Q: What about the TGI (DU-145 prostate) of the same compound?
A: 33500 nM

Q: And the GI50 (EKVX NSCLC)?
A: 34000 nM

Q: And the TGI (EKVX NSCLC)?
A: > 100000 nM

Q: What about the GI50 (HCC-2998 colon) of the same compound?
A: 1660 nM

Q: What about the TGI (HCC-2998 colon) of the same compound?
A: 19200 nM

Q: And the GI50 (HCT-116 colon)?
A: 112 nM

Q: And the TGI (HCT-116 colon)?
A: 1450 nM

Q: What about the GI50 (HCT-15 colon) of the same compound?
A: 87.7 nM

Q: What about the TGI (HCT-15 colon) of the same compound?
A: 2760 nM

Q: And the GI50 (HL-60(TB) leukemia)?
A: 58.6 nM

Q: And the TGI (HL-60(TB) leukemia)?
A: 2260 nM

Q: And the GI50 (HOP-62 NSCLC)?
A: 122 nM

Q: What about the TGI (HOP-62 NSCLC) of the same compound?
A: > 100000 nM

Q: What about the GI50 (HOP-92 NSCLC) of the same compound?
A: 353 nM

Q: And the TGI (HOP-92 NSCLC)?
A: > 100000 nM

Q: And the GI50 (HS 578T breast)?
A: 69.7 nM

Q: And the TGI (HS 578T breast)?
A: > 100000 nM

Q: What about the GI50 (HT29 colon) of the same compound?
A: 330 nM

Q: What about the TGI (HT29 colon) of the same compound?
A: > 100000 nM

Q: What about the GI50 (IGROV1 ovarian) of the same compound?
A: 323 nM

Q: What about the TGI (IGROV1 ovarian) of the same compound?
A: > 100000 nM

Q: What about the GI50 (K-562 leukemia) of the same compound?
A: 231 nM

Q: And the TGI (K-562 leukemia)?
A: 16300 nM

Q: What about the GI50 (KM12 colon) of the same compound?
A: 1030 nM

Q: What about the TGI (KM12 colon) of the same compound?
A: 2450 nM

Q: And the GI50 (LOX IMVI melanoma)?
A: 138 nM

Q: What about the TGI (LOX IMVI melanoma) of the same compound?
A: 1410 nM

Q: What about the GI50 (M14 melanoma) of the same compound?
A: 781 nM

Q: What about the TGI (M14 melanoma) of the same compound?
A: > 100000 nM

Q: And the GI50 (MALME-3M melanoma)?
A: 806 nM

Q: What about the TGI (MALME-3M melanoma) of the same compound?
A: > 100000 nM

Q: And the GI50 (MCF7 breast)?
A: 416 nM

Q: What about the TGI (MCF7 breast) of the same compound?
A: 1750 nM

Q: What about the GI50 (MDA-MB-231 breast) of the same compound?
A: 397 nM

Q: What about the TGI (MDA-MB-231 breast) of the same compound?
A: > 100000 nM

Q: What about the GI50 (MDA-MB-435 melanoma) of the same compound?
A: 2900 nM

Q: And the TGI (MDA-MB-435 melanoma)?
A: > 100000 nM

Q: What about the GI50 (MDA-MB-468 breast) of the same compound?
A: 12400 nM

Q: And the TGI (MDA-MB-468 breast)?
A: > 100000 nM

Q: What about the TGI (MOLT-4 leukemia) of the same compound?
A: 17.5 nM
